Data taken from PubChem BioAssay AID1347132.
The source made the active and inactive calls.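 The calls were made as follows: active = over 75% inhibition of phospholipid synthesis and over 75% inhibition of fatty acid synthesis; inactive = the rest.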

System: animal cells, 32Pi/[3H]acetate lipid labeling, 3 h
Experiment: lipid synthesis blockade by radiolabel incorporation – cell-based, 32Pi and [3H]acetate labeling (AID 1347132)

**Q.** Which results are given for `CC(C)(C)c1cc(/C=C(\C#N)C(N)=S)cc(C(C)(C)C)c1O`?
**A.** outcome: inactive; outcome (listed dose 0.1 µM): inactive; outcome (listed dose 0.3 µM): inactive; outcome (listed dose 1 µM): inactive; outcome (listed dose 3 µM): inactive; outcome (listed dose 10 µM): active
